pIC50: −log10 of the molar value. Counter-ions that a name gives are not always drawn. Bounds are passed on as bounds.

One experiment deals with MCH receptor (Homo sapiens, UniProt Q99705). The experiment is described as follows: High throughput functional screening FLIPR/FDSS6000: inhibition of MCH-evoked intracellular Ca2+ changes. Format: cell-based. Conditions: antagonist activity, 50 nM of MCH, FLIPR or FDSS; read-out: IC50. In outline: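 Cells expressing constitutively active MCH receptor, loaded with 4 μM Fluo4-AM for 1 h at 37 °C, were pretreated 3 min with compound, then challenged with MCH (50 nM for antagonist testing). MCH-evoked [Ca2+]i transients followed by FLIPR or FDSS (ex 488/em 530 nm) over 290 s.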
For the molecule `COc1ccc(NC(=O)N[C@H]2CC[C@@H](Nc3nc(N(C)C)c4ccccc4n3)CC2)cc1OC` [Example 1, 1-(3,4-Dimethoxy)-phenyl)-3-[cis-4-(4-dimethylamino-quinazolin-2-ylamino)-cyclohexyl-urea hydrochloride], the pIC50 was 7.89.

Still in this experiment, the particulars now being: class by percent of control at 10^-7 M or IC50.
Turning to `COc1ccc(NC(=O)NC[C@H]2CC[C@@H](Nc3nc(N(C)C)c4ccccc4n3)CC2)c(OC)c1` [compound 479], the class is on record as 3 (Class 3: The value of percent of control at 10^−7 M was more than 60% or the value of IC50 was more than 200 nM.).
As to `CC(=O)c1cccc(NC(=S)NC[C@H]2CC[C@@H](Nc3nc(N(C)C)c4ccccc4n3)CC2)c1` [compound 577], the class was 3 (Class 3: The value of percent of control at 10^−7 M was more than 60% or the value of IC50 was more than 200 nM.).
`COc1cccc(CNC(=S)N[C@H]2CC[C@@H](Nc3nc(N(C)C)c4ccccc4n3)CC2)c1OC` [compound 292, N-(2,3-dimethoxybenzyl)-N′-(cis-4-{[4-(dimethylamino)quinazolin-2-yl]amino}cyclohexyl)thiourea]: the class is 1 (Class 1: The value of percent of control at 10^−7 M was less than 40% or the value of IC50 was less than 50 nM.).
The same measure, in the same setting: in the case of `CN(C)c1nc(N[C@H]2CC[C@@H](CNC(=O)Nc3ccccc3OC(F)(F)F)CC2)nc2ccccc12` [compound 576] it was 3 (Class 3: The value of percent of control at 10^−7 M was more than 60% or the value of IC50 was more than 200 nM.).
Still for that read-out and setting: the result for `CN(C)c1ccc(/N=N/c2ccc(NC(=S)N[C@H]3CC[C@@H](Nc4nc(N(C)C)c5ccccc5n4)CC3)cc2)cc1` [compound 391] reads 3 (Class 3: The value of percent of control at 10^−7 M was more than 60% or the value of IC50 was more than 200 nM.).
Same read-out and setting: the result for `Cc1ccc(CCNC(=S)N[C@H]2CC[C@@H](Nc3nc(N(C)C)c4ccccc4n3)CC2)cc1` [compound 322] reads 3 (Class 3: The value of percent of control at 10^−7 M was more than 60% or the value of IC50 was more than 200 nM.).
With `CCc1cccc(NC(=S)N[C@H]2CC[C@@H](Nc3nc(N(C)C)c4ccccc4n3)CC2)c1` [compound 307], the class was 2 (Class 2: The value of percent of control at 10^−7 M was from 40% to 60% or the value of IC50 was from 50 nM to 200 nM.).
On the same count and under the same terms, the result for `CCc1cccc(C)c1NC(=S)N[C@H]1CC[C@@H](Nc2nc(N(C)C)c3ccccc3n2)CC1` [compound 255, N-(cis-4-{[4-(dimethylamino)quinazolin-2-yl]amino}cyclohexyl)-N′-(2-ethyl-6-methylphenyl)thiourea] reads 1 (Class 1: The value of percent of control at 10^−7 M was less than 40% or the value of IC50 was less than 50 nM.); that for `CN(C)c1nc(N[C@H]2CC[C@@H](NC(=S)NC3CC4C=CC3C4)CC2)nc2ccccc12` (relative stereo) [compound 378], 3 (Class 3: The value of percent of control at 10^−7 M was more than 60% or the value of IC50 was more than 200 nM.).
Regarding `CN(C)c1nc(N[C@H]2CC[C@@H](CNC(=S)NC3CCCCC3)CC2)nc2ccccc12` [compound 585], the class is on record as 3 (Class 3: The value of percent of control at 10^−7 M was more than 60% or the value of IC50 was more than 200 nM.).
Consider `CN(C)c1nc(N[C@H]2CC[C@@H](CNC(=S)Nc3c(F)cc(F)cc3F)CC2)nc2ccccc12` [compound 671], for which the class is 3 (Class 3: The value of percent of control at 10^−7 M was more than 60% or the value of IC50 was more than 200 nM.).
Turning to `COc1cc(NC(=S)N[C@H]2CC[C@@H](Nc3nc(N(C)C)c4ccccc4n3)CC2)c(OC)cc1Cl` [compound 373, N-(4-chloro-2,5-dimethoxyphenyl)-N′-(cis-4-{[4-(dimethylamino)quinazolin-2-yl]amino}cyclohexyl)thiourea], the class is listed as 1 (Class 1: The value of percent of control at 10^−7 M was less than 40% or the value of IC50 was less than 50 nM.).
`CN(C)c1nc(N[C@H]2CC[C@@H](CNC(=O)NC(=O)c3ccccc3)CC2)nc2ccccc12` [compound 408]: the class is on record as 3 (Class 3: The value of percent of control at 10^−7 M was more than 60% or the value of IC50 was more than 200 nM.).
On the same count and under the same terms, the result for `CN(C)c1nc(N[C@H]2CC[C@@H](CNC(=S)NC(C)(C)CC(C)(C)C)CC2)nc2ccccc12` [compound 614] reads 3 (Class 3: The value of percent of control at 10^−7 M was more than 60% or the value of IC50 was more than 200 nM.); that for `Cc1ccc(NC(=S)NC[C@H]2CC[C@@H](Nc3nc(N(C)C)c4ccccc4n3)CC2)cc1C` [compound 790], 3 (Class 3: The value of percent of control at 10^−7 M was more than 60% or the value of IC50 was more than 200 nM.); that for `CN(C)c1nc(N[C@H]2CC[C@@H](CNC(=O)Nc3ccc(F)cc3)CC2)nc2ccccc12` [compound 437, N-[(cis-4-{[4-(dimethylamino)quinazolin-2-yl]amino}cyclohexyl)methyl]-N′-(4-fluorophenyl)urea], 1 (Class 1: The value of percent of control at 10^−7 M was less than 40% or the value of IC50 was less than 50 nM.).
With `Cc1ccc(NC(=O)NC[C@H]2CC[C@@H](Nc3nc(N(C)C)c4ccccc4n3)CC2)cc1Cl` [compound 464], the class was 3 (Class 3: The value of percent of control at 10^−7 M was more than 60% or the value of IC50 was more than 200 nM.).
With `CN(C)c1nc(N[C@H]2CC[C@@H](CNC(=O)Nc3ccc4c(c3)Cc3ccccc3-4)CC2)nc2ccccc12` [compound 569], the class is given as 3 (Class 3: The value of percent of control at 10^−7 M was more than 60% or the value of IC50 was more than 200 nM.).
For `CCc1cccc(C)c1NC(=S)NC[C@H]1CC[C@@H](Nc2nc(N(C)C)c3ccccc3n2)CC1` [compound 679], the class was 2 (Class 2: The value of percent of control at 10^−7 M was from 40% to 60% or the value of IC50 was from 50 nM to 200 nM.).
Still for that read-out and setting: the result for `CN(C)c1nc(N[C@H]2CC[C@@H](CNC(=S)Nc3ccc(S(=O)(=O)N4CCCCC4)cc3)CC2)nc2ccccc12` [compound 778] reads 3 (Class 3: The value of percent of control at 10^−7 M was more than 60% or the value of IC50 was more than 200 nM.).

Staying with this experiment, now noted: class by percent of control at 10^-7 M or by IC50; read-out: class.
As to `Cc1cc([N+](=O)[O-])ccc1NC(=O)N[C@H]1CC[C@@H](Nc2nc(N(C)C)c3ccccc3n2)CC1` [compound 108, N-(cis-4-{[4-(dimethylamino)quinazolin-2-yl]amino}cyclohexyl)-N′-(2-methyl-4-nitrophenyl)urea], the pIC50 was more than 7.30.
Still for that read-out and setting: the result for `C=C(C)CNC(=S)N[C@H]1CC[C@@H](Nc2nc(N(C)C)c3ccccc3n2)CC1` [compound 184] reads less than 6.70; that for `COc1ccc(NC(=S)N[C@H]2CC[C@@H](Nc3nc(N(C)C)c4ccccc4n3)CC2)c(OC)c1` [compound 166], more than 7.30; that for `CN(C)c1nc(N[C@H]2CC[C@@H](NC(=O)Oc3ccccc3)CC2)nc2ccccc12` [compound 859], less than 6.70.
With `CSc1ccc(NC(=O)N[C@H]2CC[C@@H](Nc3nc(N(C)C)c4ccccc4n3)CC2)cc1` [compound 47, N-(cis-4-{[4-(dimethylamino)quinazolin-2-yl]amino}cyclohexyl)-N′-[4-(methylthio)phenyl]urea], the pIC50 is more than 7.30.
Same read-out and setting: the result for `Cc1cccc(NC(=S)N[C@H]2CC[C@@H](Nc3nc(N(C)C)c4ccccc4n3)CC2)c1` [compound 181] reads less than 6.70; that for `CC1CCC(C(C)C)C(OC(=O)NCC2CCC(Nc3nc(N(C)C)c4ccccc4n3)CC2)C1` (stereo not shown) [compound 880], less than 6.70.
The same measure, in the same setting: in the case of `CN(C)c1nc(N[C@H]2CC[C@@H](NC(=S)NC(C)(C)CC(C)(C)C)CC2)nc2ccccc12` [compound 190] it was less than 6.70.
The same measure, in the same setting: the result for `CN(C)c1nc(N[C@H]2CC[C@@H](CNC(=S)Nc3ccc(F)cc3Br)CC2)nc2ccccc12` [compound 803] reads less than 6.70.

The same experiment, now with this note: class by percent of control at 10^−7 M or by IC50; read-out: class.
Take `COc1cc(OC)cc(Oc2ncccc2C(=O)N[C@H]2CC[C@@H](Nc3nc(N(C)C)c4ccccc4n3)CC2)c1` [Example 1039, 2-(3,5-dimethoxyphenoxy)-N-(cis-4-{[4-(dimethylamino)quinazolin-2-yl]amino}cyclohexyl)nicotinamide]: the pIC50 was more than 7.30.
The same measure, in the same setting: in the case of `CN(C)c1nc(N[C@H]2CC[C@@H](NC(=O)c3ccc(Oc4ccc(OC(F)(F)F)cc4)nc3)CC2)nc2ccccc12` [Example 1062, N-(cis-4-{[4-(dimethylamino)quinazolin-2-yl]amino}cyclohexyl)-6-[4-(trifluoromethoxy)phenoxy]nicotinamide] it was less than 6.70.
On the same count and under the same terms, in the case of `COc1ccc(C(NC(=O)[C@H]2CC[C@@H](Nc3nc(N(C)C)c4ccccc4n3)CC2)c2ccc(OC)cc2)cc1` [Example 1192, cis-N-[bis(4-methoxyphenyl)methyl]-4-{[4-(dimethylamino)quinazolin-2-yl]amino}cyclohexanecarboxamide] it was more than 7.30.
For the molecule `Cc1c(Cl)cccc1CNC(=O)[C@H]1CC[C@@H](Nc2nc(N(C)C)c3ccccc3n2)CC1` [Example 1144, cis-N-(3-chloro-2-methylbenzyl)-4-{[4-(dimethylamino)quinazolin-2-yl]amino}cyclohexanecarboxamide], the pIC50 is more than 7.30.
Consider `COc1ccc(NC(=O)NC[C@H]2CC[C@@H](Nc3nc(N(C)C)c4ccccc4n3)CC2)cc1OC` [Example 1018, N-(3,4-dimethoxyphenyl)-N′-[(cis-4-{[4-(dimethylamino)quinazolin-2-yl]amino}cyclohexyl)methyl]urea], for which the pIC50 is less than 6.70.
The same measure, in the same setting: in the case of `CN(C)c1nc(N[C@H]2CC[C@@H](NC(=O)c3ccc(OCc4ccccc4)cc3)CC2)nc2ccccc12` [Example 1084, 4-(benzyloxy)-N-(cis-4-{[4-(dimethylamino)quinazolin-2-yl]amino}cyclohexyl)benzamide] it was less than 6.70; in that of `CN(C)c1nc(N[C@H]2CC[C@@H](NC(=O)c3ccc(Oc4ccc(Cl)cc4)nc3)CC2)nc2ccccc12` [Example 1060, 6-(4-chlorophenoxy)-N-(cis-4-{[4-(dimethylamino)quinazolin-2-yl]amino}cyclohexyl)nicotinamide], more than 7.30.
